PMC4139942 (Scientific Reports, 2014)

How the values were obtained:
amylin aggregates = amylin aggregates (Homo sapiens, UniProt P10997); type: binding
AD brain samples = conditions: cited from earlier work

Chain of amylin aggregates (P10997 34-70): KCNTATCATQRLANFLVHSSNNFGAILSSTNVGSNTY

Ki (amylin aggregates): 501 ± 40.8 nM
Structure (SMILES): CNc1ccc(/C=C/c2ccc(OCCOCCOCCF)nc2)cc1 [AV-45, (E)-4-(2-(6-(2-(2-(2-fluoroethoxy)ethoxy)ethoxy)pyridin-3-yl)vinyl)-N-methylaniline]
Ki (AD brain samples): 6.7 nM
